Measurements: ChEMBL document CHEMBL1201862, “PubChem BioAssay data set” (2004)
Activity calls are given as the source filed them. Rule as the data show it, for most assays here: actives have a measured EC50 and inactives only a lower limit.

What was measured:
[1] = test system: Streptococcus sp. 'group A'; experiment: Streptococcus pyogenes SK(-)GAS viability under kanamycin – luminescence, BacTiterGlo, confirmation, counter-screen for streptokinase expression inhibitor project, dose response (AID 1900); type: functional, organism-based
Streptococcus [2] = experiment: GAS UMAA2166 growth inhibition – luminescence, BacTiterGlo, counter-screen for streptokinase expression inhibitor project, dose response (AID 1915); type: functional, organism-based;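 also: potency for reduction of bacterial viability or growth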
Streptococcus [3] = experiment: Luminescence Microorganism-Based Dose Response Follow up to Identify Compounds Cytotoxic to Streptococcus. [Related pubchem assays: 1677 (Project Summary), 1915, 1914, 1902 (Retest at Dose), 1900 (Counter Screen), 1662 (Primary HTS)]; type: functional, organism-based
Streptokinase A = target: T1, Streptokinase A (Streptococcus pyogenes serotype M1, UniProt P10520); experiment: viability-normalized secreted streptokinase activity reduction – plasminogen activation absorbance, OD405, dose response (AID 1914); type: functional, Streptococcus pyogenes M1 GAS;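 also: secreted streptokinase activity via plasminogen activation per viability signal from cell pellet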
T1 sequence (P10520 whole entry): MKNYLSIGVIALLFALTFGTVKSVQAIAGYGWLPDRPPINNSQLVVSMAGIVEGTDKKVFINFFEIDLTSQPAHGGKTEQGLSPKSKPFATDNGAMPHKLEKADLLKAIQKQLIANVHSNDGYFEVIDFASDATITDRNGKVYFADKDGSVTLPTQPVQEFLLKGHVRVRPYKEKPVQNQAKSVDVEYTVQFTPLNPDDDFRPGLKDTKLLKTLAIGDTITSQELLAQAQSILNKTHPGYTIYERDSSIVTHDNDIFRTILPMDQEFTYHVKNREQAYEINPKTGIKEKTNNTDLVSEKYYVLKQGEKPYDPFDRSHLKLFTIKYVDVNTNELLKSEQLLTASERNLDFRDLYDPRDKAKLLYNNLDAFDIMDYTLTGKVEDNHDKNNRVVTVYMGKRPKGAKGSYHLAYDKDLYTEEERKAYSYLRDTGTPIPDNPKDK

[4] = target: Induced myeloid leukemia cell differentiation protein Mcl-1 (Homo sapiens, UniProt Q07820); type: functional
[5] = CCR5-tropic HIV-1 fusion blockers – cell-based, CCR5-tropic Env, dose response (AID 2279); type: functional
[6] = antiviral protection against BTV-induced cell death – arbovirus, BSR cells, confirmation (AID 1250); type: functional;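 also: protection from viral cytopathic effect measured as cell viability by ATP luminescence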
[7] = A Cell Based Secondary Assay To Explore Cytotoxicity of Compounds that Sensitize Mycobacterium Tuberculosis to Beta-Lactam Antibiotics.; type: functional
[8] = target: T2, Luciferin 4-monooxygenase (Photinus pyralis, UniProt P08659); experiment: inhibition of purified Photinus pyralis luciferase – biochemical, luminescence, dose response (AID 1891)
HT-1080 = experiment: HT1080 cell viability loss – fluorescence readout (AID 620); type: functional, cell-based; conditions: Homo sapiens
Protein skinhead-1 = target: T3, Protein skinhead-1 (Caenorhabditis elegans, UniProt P34707); type: functional
T3 sequence (P34707 whole entry): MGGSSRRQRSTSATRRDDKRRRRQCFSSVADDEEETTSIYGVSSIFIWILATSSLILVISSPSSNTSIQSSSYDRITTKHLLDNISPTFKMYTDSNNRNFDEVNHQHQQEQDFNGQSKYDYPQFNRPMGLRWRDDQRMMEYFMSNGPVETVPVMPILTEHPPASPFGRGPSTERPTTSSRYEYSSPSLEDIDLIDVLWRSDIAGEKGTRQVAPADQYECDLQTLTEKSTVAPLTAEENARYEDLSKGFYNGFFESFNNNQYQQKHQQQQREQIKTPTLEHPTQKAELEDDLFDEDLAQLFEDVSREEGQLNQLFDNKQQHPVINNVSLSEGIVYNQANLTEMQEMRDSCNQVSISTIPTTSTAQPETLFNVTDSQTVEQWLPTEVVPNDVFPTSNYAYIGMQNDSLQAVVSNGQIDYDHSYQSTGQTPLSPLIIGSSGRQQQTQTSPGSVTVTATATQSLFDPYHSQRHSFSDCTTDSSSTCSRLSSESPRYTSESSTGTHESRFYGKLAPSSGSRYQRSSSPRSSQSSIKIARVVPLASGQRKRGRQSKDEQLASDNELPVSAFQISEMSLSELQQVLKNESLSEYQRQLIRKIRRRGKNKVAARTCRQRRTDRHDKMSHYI

[9] = target: T2, Luciferin 4-monooxygenase; experiment: Counter Screen for Luciferase-based Assay Positives. [Related pubchem assays: 620, 618, 411 ]
[10] = Luminescence Cell-Based Dose Confirmation HTS to Identify Inhibitors of Platelet Dense Granule Release. [Related pubchem assays: 1663 (Primary HTS), 1678 (Summary of Project)]; type: functional
[11] = target: T4, RNA-binding protein pos-1 (Caenorhabditis elegans, UniProt G5EF15); experiment: disruptors of C. elegans POS-1 RNA interaction – biochemical, fluorescence polarization, dose response (AID 1964);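 also: purified POS-1 fused to maltose binding protein made in E. coli; potency of compounds blocking POS-1 binding to fluorescent RNA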
T4 sequence (G5EF15 whole entry): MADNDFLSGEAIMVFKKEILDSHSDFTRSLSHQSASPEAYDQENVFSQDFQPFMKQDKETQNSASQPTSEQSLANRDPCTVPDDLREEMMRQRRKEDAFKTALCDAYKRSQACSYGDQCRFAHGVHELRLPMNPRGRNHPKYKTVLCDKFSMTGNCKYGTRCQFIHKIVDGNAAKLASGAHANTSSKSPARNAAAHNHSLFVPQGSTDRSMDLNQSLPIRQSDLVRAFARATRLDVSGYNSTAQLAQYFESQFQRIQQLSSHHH

[12] = target: T5, Zinc finger protein mex-5 (Caenorhabditis elegans, UniProt Q9XUB2); experiment: potency of MEX-5 RNA-binding blockers – biochemical, C. elegans, fluorescence polarization, dose response (AID 1960)
T5 sequence (Q9XUB2 whole entry): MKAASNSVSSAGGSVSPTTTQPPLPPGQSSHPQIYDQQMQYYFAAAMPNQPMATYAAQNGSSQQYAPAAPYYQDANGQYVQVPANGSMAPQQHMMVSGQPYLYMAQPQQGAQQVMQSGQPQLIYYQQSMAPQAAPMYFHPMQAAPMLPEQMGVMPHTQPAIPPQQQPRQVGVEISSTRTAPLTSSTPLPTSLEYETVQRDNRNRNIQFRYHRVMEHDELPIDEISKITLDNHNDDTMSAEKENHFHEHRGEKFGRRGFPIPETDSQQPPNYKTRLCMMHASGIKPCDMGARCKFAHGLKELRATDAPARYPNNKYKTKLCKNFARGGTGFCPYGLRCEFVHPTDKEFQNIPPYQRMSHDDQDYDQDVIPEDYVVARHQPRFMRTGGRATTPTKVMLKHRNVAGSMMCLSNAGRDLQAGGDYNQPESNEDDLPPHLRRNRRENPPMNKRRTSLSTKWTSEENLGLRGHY

[13] = M. tuberculosis H37Rv growth inhibitors, H37Rv strain (AID 1626); type: functional
[14] = target: T6, Heat shock factor protein 1 (Mus musculus, UniProt P38532); experiment: decrease of HSF1-responsive luciferase luminescence – cell-based, NIH3T3, dose retest, confirmation (AID 2382); type: functional;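 also: NIH3T3 fibroblasts with HSF1-driven luciferase reporter stressed by proteasome inhibitor MG132; luminescence from HSF1-driven luciferase expression after 8 hours of MG132 stress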
T6 sequence (P38532 whole entry): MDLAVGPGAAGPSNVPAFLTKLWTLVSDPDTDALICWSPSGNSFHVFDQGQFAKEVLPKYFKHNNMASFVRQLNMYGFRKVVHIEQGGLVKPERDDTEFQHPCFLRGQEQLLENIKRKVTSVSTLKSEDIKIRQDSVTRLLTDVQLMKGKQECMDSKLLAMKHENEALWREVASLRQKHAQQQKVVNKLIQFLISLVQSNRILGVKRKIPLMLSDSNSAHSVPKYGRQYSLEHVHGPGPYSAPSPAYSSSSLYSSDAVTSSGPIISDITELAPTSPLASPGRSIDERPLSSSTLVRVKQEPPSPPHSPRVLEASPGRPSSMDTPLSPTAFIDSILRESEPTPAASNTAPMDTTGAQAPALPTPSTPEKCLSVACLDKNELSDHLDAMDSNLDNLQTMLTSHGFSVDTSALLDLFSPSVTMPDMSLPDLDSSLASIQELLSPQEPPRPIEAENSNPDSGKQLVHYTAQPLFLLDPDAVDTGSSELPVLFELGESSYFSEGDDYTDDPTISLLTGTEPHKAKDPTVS

[15] = target: Sphingosine 1-phosphate receptor 2 (Homo sapiens, UniProt O95136); experiment: Dose Response Cell Based Assay for Agonists of the S1P2 Receptor of Purchased Analogues. [Related pubchem assays: 729, 843, 854, 736 ]; type: functional
Sequence of Sphingosine 1-phosphate receptor 2 (O95136 whole entry): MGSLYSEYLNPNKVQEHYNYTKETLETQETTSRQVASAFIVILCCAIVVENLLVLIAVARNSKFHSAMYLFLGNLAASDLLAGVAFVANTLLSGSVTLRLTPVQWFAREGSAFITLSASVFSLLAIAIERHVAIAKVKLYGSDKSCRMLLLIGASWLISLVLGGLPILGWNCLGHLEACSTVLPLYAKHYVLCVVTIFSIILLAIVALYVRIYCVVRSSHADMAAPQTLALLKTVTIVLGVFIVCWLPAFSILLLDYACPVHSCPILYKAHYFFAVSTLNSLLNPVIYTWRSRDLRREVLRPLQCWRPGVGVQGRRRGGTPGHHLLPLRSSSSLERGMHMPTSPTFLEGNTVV

T2 sequence (P08659 whole entry): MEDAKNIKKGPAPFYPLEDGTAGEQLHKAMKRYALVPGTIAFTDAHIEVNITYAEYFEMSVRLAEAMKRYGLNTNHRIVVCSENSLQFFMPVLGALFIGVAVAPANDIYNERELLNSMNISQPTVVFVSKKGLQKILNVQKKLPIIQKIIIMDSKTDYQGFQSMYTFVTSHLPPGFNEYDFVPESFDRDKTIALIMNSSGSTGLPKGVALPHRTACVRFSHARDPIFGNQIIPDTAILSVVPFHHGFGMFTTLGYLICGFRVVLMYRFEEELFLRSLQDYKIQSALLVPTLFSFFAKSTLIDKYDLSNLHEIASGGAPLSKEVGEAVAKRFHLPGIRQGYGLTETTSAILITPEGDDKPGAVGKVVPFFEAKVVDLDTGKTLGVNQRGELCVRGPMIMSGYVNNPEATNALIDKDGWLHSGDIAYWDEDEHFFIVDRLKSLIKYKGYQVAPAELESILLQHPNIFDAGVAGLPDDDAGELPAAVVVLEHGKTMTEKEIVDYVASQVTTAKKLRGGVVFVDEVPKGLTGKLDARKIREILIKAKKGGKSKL
Sequence of Induced myeloid leukemia cell differentiation protein Mcl-1 (Q07820 whole entry, the tested form may be a part): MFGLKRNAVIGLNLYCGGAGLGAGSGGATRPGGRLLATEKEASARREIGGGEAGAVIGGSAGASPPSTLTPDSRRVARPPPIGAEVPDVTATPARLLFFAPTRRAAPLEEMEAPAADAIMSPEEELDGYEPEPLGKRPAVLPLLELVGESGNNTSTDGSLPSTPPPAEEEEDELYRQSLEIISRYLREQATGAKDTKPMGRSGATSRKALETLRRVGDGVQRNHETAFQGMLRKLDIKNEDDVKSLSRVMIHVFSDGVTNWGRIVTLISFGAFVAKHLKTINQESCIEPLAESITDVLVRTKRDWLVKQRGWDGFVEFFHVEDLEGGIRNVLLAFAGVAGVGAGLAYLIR

CC(C)c1ccc(NC(=O)c2cc(S(=O)(=O)NCC3COc4ccccc4O3)ccc2F)cc1 (stereo unspecified)
EC50 [1]: 12.2 µM (active) | EC50 (Streptococcus [2]): 74.4 µM (active) | EC50 (Streptococcus [3]): > 500 µM (not active) | EC50 (Streptokinase A): 3.53 µM (active)

CC1(c2ccccc2)CC(C)(C)N2C(=O)/C(=C3\SC(=S)NC3=O)c3cccc1c32 (stereo unspecified)
IC50 [4]: 1.18 µM (active) | EC50 [1]: 0.435 µM (active) | EC50 (Streptococcus [2]): 3.08 µM (active) | EC50 (Streptokinase A): > 150 µM (not active) | IC50 [5]: 9.92 µM (active)

COc1ccc(-c2c3c(cc(C)[n+]2[O-])oc2ccc(OC)cc23)cc1
IC50 [6]: 22 µM (active)

COc1ccc2c(c1)c(C(C)=O)c(C)n2-c1ccccc1
CC50 [7]: > 40 µM (active)

Nc1ccc2nc(-c3ccccc3)sc2c1
EC50 [8]: 0.958 µM (active) | EC50 (HT-1080): > 50 µM (not active) | IC50 (Protein skinhead-1): 55.9 µM (inactive) | EC50 [9]: 23.5 µM (active) | EC50 [10]: 2.44 µM (active)

COc1ccc(/N=C/c2c(O)ccc3ccccc23)cc1
EC50 [11]: > 300 µM (not active) | EC50 [12]: > 300 µM (not active) | IC50 [13]: > 100 µM (active) | EC50 [14]: 35.1 µM (active)

Cc1cc(C(=O)CSc2ncccn2)c(C)n1Cc1ccccc1
EC50 [15]: > 30 µM (not active)
